# Experimental data as given in ChEMBL document CHEMBL1944510, “Potent galloyl-based selective modulators targeting multidrug resistance associated protein 1 and P-glycoprotein” (J Med Chem, 2012).
# Biological target: ATP-dependent translocase ABCB1 (Homo sapiens, UniProt P08183)
# Experiment: Inhibition of human MDR1 expressed in MDCK cells assessed as calcein AM accumulation after 30 mins by fluorescence assay
# Type: cell-based
# Conditions: read-out: IC50
# ATP-dependent translocase ABCB1, sequence (P08183 whole entry): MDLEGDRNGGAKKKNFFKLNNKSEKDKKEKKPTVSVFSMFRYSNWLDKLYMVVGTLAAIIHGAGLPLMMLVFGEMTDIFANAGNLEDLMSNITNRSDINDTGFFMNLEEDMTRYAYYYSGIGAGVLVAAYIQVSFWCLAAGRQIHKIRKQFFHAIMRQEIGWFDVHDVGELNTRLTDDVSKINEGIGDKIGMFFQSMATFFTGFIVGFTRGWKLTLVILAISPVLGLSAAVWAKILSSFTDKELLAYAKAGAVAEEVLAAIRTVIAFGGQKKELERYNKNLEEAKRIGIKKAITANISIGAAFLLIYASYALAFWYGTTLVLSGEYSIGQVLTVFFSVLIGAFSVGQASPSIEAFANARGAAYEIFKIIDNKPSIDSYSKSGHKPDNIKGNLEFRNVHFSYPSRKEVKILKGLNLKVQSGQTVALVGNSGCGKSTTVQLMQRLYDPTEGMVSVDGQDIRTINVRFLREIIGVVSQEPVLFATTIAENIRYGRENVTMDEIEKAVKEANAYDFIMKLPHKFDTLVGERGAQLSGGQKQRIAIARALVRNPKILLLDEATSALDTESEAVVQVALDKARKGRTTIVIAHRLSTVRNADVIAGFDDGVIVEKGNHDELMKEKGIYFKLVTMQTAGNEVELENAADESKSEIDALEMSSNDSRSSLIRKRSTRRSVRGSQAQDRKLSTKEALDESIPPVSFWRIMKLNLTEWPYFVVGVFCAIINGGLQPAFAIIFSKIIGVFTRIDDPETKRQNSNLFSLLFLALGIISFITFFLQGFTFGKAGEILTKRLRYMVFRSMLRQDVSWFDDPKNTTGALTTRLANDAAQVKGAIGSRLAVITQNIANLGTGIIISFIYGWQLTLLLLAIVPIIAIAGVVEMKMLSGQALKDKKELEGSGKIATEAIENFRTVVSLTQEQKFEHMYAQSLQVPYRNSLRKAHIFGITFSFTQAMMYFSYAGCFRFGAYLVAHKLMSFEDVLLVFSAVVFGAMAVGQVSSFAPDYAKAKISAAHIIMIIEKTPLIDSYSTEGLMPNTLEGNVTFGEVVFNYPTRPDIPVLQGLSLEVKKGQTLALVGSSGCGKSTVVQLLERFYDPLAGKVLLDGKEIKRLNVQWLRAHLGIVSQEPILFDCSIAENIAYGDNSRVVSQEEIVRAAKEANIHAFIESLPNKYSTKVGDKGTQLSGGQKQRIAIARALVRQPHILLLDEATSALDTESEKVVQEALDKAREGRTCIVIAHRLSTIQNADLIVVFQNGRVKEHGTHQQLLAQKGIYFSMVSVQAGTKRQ
row,Structure (SMILES),IC50 [µM]
1,COc1ccc(CCN(C)CCCC(C#N)(c2ccc(O)c(O)c2)C(C)C)cc1OC (racemic),31.7
2,COc1cc(C(=O)Nc2ccc(-c3cc(O)c(O)c(OC)c3)cc2[N+](=O)[O-])cc(O)c1O,3.1
3,COc1cc(C(=O)Nc2ccc(-c3ccccc3)cc2F)cc(OC)c1OC,1.4
4,COc1cc(CNc2ccc(-c3ccccc3)cc2[N+](=O)[O-])cc(O)c1O,72
5,COc1cc(C(=O)Nc2ccc(-c3ccccc3)cc2[N+](=O)[O-])cc(O)c1O,67
6,COc1cc(C(=O)Nc2ccc(-c3ccccc3)cc2NC(C)=O)cc(O)c1O,> 100
7,COc1cc(C(=O)Nc2ccc(-c3ccccc3)cc2N)cc(O)c1O,> 100
8,COc1cc(C(=O)Nc2ccc(-c3cc(F)cc(F)c3)cc2[N+](=O)[O-])cc(O)c1O,16.8
9,COc1cc(C(=O)Nc2ccc(-c3ccccc3)cc2)cc(O)c1O,> 100
10,COc1cc(C(=O)Nc2ccc(-c3cccc([N+](=O)[O-])c3)cc2[N+](=O)[O-])cc(OC)c1OC,0.4
11,COC1=CC(C(=O)Nc2ccc(-c3ccccc3)cc2[N+](=O)[O-])=CC(=O)C1=O,> 100
12,COc1cc(C(=O)Nc2ccc(-c3cccc(C(C)=O)c3)cc2[N+](=O)[O-])cc(O)c1O,9.1
13,COc1cc(C(=O)Nc2ccc(-c3ccc(O)c(O)c3)cc2[N+](=O)[O-])cc(O)c1O,> 100
14,COc1ccc(C(=O)Nc2ccc(-c3ccccc3)cc2[N+](=O)[O-])cc1O,3.5
15,COc1cc(C(=O)Nc2ccc(-c3cccs3)cc2[N+](=O)[O-])cc(OC)c1OC,17.3
16,COc1cc(C(=O)Nc2ccc(Br)cc2)cc(OC)c1OC,20
17,COc1cc(NC(=O)c2ccc(-c3ccccc3)cc2[N+](=O)[O-])cc(OC)c1OC,2
18,COc1cc(C(=O)Nc2ccc(-c3ccc4c(c3)OCO4)cc2[N+](=O)[O-])cc(OC)c1OC,0.2
19,COc1ccc(NC(=O)c2cc(OC)c(OC)c(OC)c2)c([N+](=O)[O-])c1,> 100
20,O=C(Nc1ccc(Br)cc1[N+](=O)[O-])c1cc(O)c(O)c(O)c1,> 100
21,COc1cc(C(=O)Nc2ccc(Br)cc2[N+](=O)[O-])cc(OC)c1OC,> 100

row,Structure (SMILES),IC50 [µM]
1,COc1cc(C(=O)Nc2ccc(-c3cccc([N+](=O)[O-])c3)cc2)cc(O)c1O,32.5
2,COc1cc(CNc2ccc(-c3ccccc3)cc2[N+](=O)[O-])cc(OC)c1OC,1.5
3,COc1cc(NC(=O)c2ccc(-c3ccccc3)cc2[N+](=O)[O-])cc(O)c1O,> 100
4,COc1cc(C(=O)Nc2ccc(-c3ccccc3)cc2[N+](=O)[O-])cc(OC)c1OC,> 100
5,COc1cc(C(=O)Nc2ccc(-c3ccc[n+](C)c3)cc2[N+](=O)[O-])cc(OC)c1OC,34
6,COc1cc(C(=O)Nc2ccc(-c3ccccc3)cc2F)cc(O)c1O,14.1
7,O=C(Nc1ccc(-c2ccccc2)cc1[N+](=O)[O-])c1cc(O)c(O)c(O)c1,> 100
8,COc1cc(C(=O)Nc2ccc(-c3ccccc3)cc2N)cc(OC)c1OC,7.2
9,COc1cc(C(=O)Nc2ccc(-c3ccccc3)cc2NC(C)=O)cc(OC)c1OC,1.9
10,COc1cc(C(=O)Nc2ccc(-c3cccnc3)cc2[N+](=O)[O-])cc(OC)c1OC,6.8
11,O=C(Nc1ccc(-c2ccccc2)cc1[N+](=O)[O-])c1cc(O)cc(O)c1,72
12,COc1cc(C(=O)Nc2cc(-c3ccccc3)ccc2[N+](=O)[O-])cc(OC)c1OC,0.57
13,COc1cc(C(=O)Nc2ccc(-c3cccc(C(C)=O)c3)cc2[N+](=O)[O-])cc(OC)c1OC,0.6
14,COc1ccc(NC(=O)c2cc(O)c(O)c(OC)c2)c([N+](=O)[O-])c1,65
15,COc1cc(C(=O)Nc2ccc(-c3cc(OC)c(OC)c(OC)c3)cc2[N+](=O)[O-])cc(OC)c1OC,24.3
16,COc1cc(C(=O)Nc2cc(-c3ccccc3)ccc2[N+](=O)[O-])cc(O)c1O,40.2
17,COc1cc(C(=O)Nc2ccc(Br)cc2[N+](=O)[O-])cc(O)c1O,38.4
18,COc1cc(C(=O)Nc2ccc(-c3ccccc3)cc2)cc(OC)c1OC,> 100
19,COc1cc(OC)cc(C(=O)Nc2ccc(-c3ccccc3)cc2[N+](=O)[O-])c1,6.6
20,COc1ccc(C(=O)Nc2ccc(-c3ccccc3)cc2[N+](=O)[O-])cc1OC,1.3

# Same assay, conditions: read-out: pIC50 (converted)
row,Structure (SMILES),IC50 [µM]
1,COc1cc(C(=O)Nc2ccc(-c3cccc([N+](=O)[O-])c3)cc2[N+](=O)[O-])cc(OC)c1OC,> 1
2,COc1cc(C(=O)Nc2ccc(-c3ccc4c(c3)OCO4)cc2[N+](=O)[O-])cc(OC)c1OC,0.2
3,COc1cc(C(=O)Nc2cc(-c3ccccc3)ccc2[N+](=O)[O-])cc(OC)c1OC,0.57
4,COc1cc(C(=O)Nc2ccc(-c3cccc(C(C)=O)c3)cc2[N+](=O)[O-])cc(OC)c1OC,0.6
5,COc1cc(C(=O)Nc2ccc(-c3cc(OC)c(OC)c(OC)c3)cc2[N+](=O)[O-])cc(OC)c1OC,24.3

# System: not listed separately
# Experiment: Chemical stability of the compound at 1 to 100 uM after 1 hr by ESI-MS analysis
# Type: physicochemical
# Conditions: not given
row,Structure (SMILES),Stability
1,COc1cc(C(=O)Nc2ccc(-c3ccccc3)cc2[N+](=O)[O-])cc(O)c1O,Stable
2,COc1cc(C(=O)Nc2ccc(-c3ccccc3)cc2[N+](=O)[O-])cc(OC)c1OC,Stable
3,O=C(Nc1ccc(-c2ccccc2)cc1[N+](=O)[O-])c1cc(O)c(O)c(O)c1,Stable
